Test results from PMC7833758, “Characterization of fructooligosaccharide metabolism and fructooligosaccharide-degrading enzymes in human commensal butyrate producers” (Gut Microbes, 2021).

Target: T1, R.intestinalis-GH32 (Roseburia intestinalis, UniProt C7G9C0)
T1 construct: gene sacC; expressed from pET28a in E. coli BL21(DE3), cell-free extract; intracellular; cluster 3, only GH32 of the strain
T1 sequence (C7G9C0 1-563): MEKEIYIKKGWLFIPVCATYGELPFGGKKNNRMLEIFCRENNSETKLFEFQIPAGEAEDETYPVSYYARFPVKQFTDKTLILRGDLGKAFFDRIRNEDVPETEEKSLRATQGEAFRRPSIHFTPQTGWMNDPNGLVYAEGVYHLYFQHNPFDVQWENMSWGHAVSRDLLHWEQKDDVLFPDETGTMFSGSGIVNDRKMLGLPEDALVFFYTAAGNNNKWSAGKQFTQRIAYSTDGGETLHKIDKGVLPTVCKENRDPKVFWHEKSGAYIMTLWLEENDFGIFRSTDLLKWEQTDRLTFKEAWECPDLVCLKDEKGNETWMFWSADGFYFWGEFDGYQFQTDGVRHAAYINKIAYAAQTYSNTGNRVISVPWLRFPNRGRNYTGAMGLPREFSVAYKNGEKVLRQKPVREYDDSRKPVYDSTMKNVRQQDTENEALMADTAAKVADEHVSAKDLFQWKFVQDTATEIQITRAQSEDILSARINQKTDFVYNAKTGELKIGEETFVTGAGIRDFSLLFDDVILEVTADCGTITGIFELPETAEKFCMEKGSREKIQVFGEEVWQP
Test: degradation by E. coli cell-free extract
Format: biochemical

Structure (SMILES) | degradation by E. coli cell-free extract
OC[C@H]1O[C@@](CO)(OC[C@@]2(O[C@H]3O[C@H](CO)[C@@H](O)[C@H](O)[C@H]3O)O[C@H](CO)[C@@H](O)[C@@H]2O)[C@@H](O)[C@@H]1O [kestose] | cell-free extracts containing R.intestinalis-GH32
OC[C@H]1O[C@@](CO)(OC[C@@]2(OC[C@@]3(O[C@H]4O[C@H](CO)[C@@H](O)[C@H](O)[C@H]4O)O[C@H](CO)[C@@H](O)[C@@H]3O)O[C@H](CO)[C@@H](O)[C@@H]2O)[C@@H](O)[C@@H]1O [nystose] | cell-free extracts containing R.intestinalis-GH32
